Patent US9409905B2, “Antibacterial compounds and methods for use” (PTC THERAPEUTICS, INC., priority 2011, dated 2016)
≈ marks a conversion by molar mass, not a printed value.

Experiments:
[1] = tested on: Escherichia coli (E. coli) BAS849; experiment: Antibacterial activity, microbroth dilution MIC (Table 1); assay type: cell-based; details: microbroth dilution, super sensitive Gram-negative E. coli BAS849, read-out: MIC, BAS849
Summary of the method: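 MIC (μg/mL) is taken as the lowest concentration with no macroscopically visible growth. Strains tested by microbroth dilution: Gram-positive S. aureus 29213, control Gram-negative E. coli 25922, and super-sensitive E. coli BAS849.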

[2] = tested on: Staphylococcus aureus (S. aureus) 29213; experiment: as above; assay type: cell-based; details: microbroth dilution, Gram-positive S. aureus 29213, read-out: MIC, 29213
Summary of the method: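 Broth microdilution; endpoint = no macroscopic growth; value = lowest inhibiting concn, μg/mL.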

E. coli 25922 = experiment: as above; assay type: cell-based, Escherichia coli; details: Escherichia coli; microbroth dilution; control Gram-negative E. coli 25922 strain; read-out: MIC, 25922
Summary of the method: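 MIC (μg/mL) read as lowest concentration with no macroscopically visible growth; microbroth dilution format. E. coli 25922 served as control Gram-negative strain.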

E. coli LZ3111 = experiment: Antibacterial activity, MIC, quinolone resistant strain (Table 2); assay type: cell-based; details: Escherichia coli, LZ3111, read-out: MIC LZ3111
Summary of the method: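 Broth microdilution. Read-out: MIC in μg/mL, taken as lowest concentration with no macroscopically visible growth.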

SMILES	MIC [1]	MIC [2]	MIC (E. coli 25922)	MIC (E. coli LZ3111)
CCc1cc(C(=O)O)c(=O)[nH]c1-c1ccc2c(c1)cc(CCN)n2C.Cl [Cpd 163, 6-(2-(2-aminoethyl)-1-methyl-1H-indol-5-yl)-5-ethyl-2-oxo-1,2-dihydropyridine-3-carboxylic acid hydrochloride]	< 1 µg/mL	12.5 to 150 µg/mL	12.5 to 150 µg/mL	12.5 to 150 µg/mL
CCc1c(-c2ccc3c(c2)cc(CNCc2ccccc2OC)n3C)[nH]c(=O)c(C(=O)O)c1O [Cpd 293, 5-ethyl-4-hydroxy-6-(2-((2-methoxybenzylamino)methyl)-1-methyl-1H-indol-5-yl)-2-oxo-1,2-dihydropyridine-3-carboxylic acid]	< 1 µg/mL	3.5 to 12.5 µg/mL (≈ 7.58 to 27.1 µM)	< 1 µg/mL	12.5 to 150 µg/mL (≈ 27.1 to 325 µM)
CCc1c(-c2ccc3c(c2)cc(CNC2CCNCC2)n3C)[nH]c(=O)c(C(=O)O)c1O [Cpd 263, 5-ethyl-4-hydroxy-6-(1-methyl-2-((piperidin-4-ylamino)methyl)-1H-indol-5-yl)-2-oxo-1,2-dihydropyridine-3-carboxylic acid]	3.5 to 12.5 µg/mL (≈ 8.24 to 29.4 µM)	12.5 to 150 µg/mL (≈ 29.4 to 353 µM)	12.5 to 150 µg/mL (≈ 29.4 to 353 µM)	12.5 to 150 µg/mL (≈ 29.4 to 353 µM)
CCc1cc(C(=O)O)c(=O)[nH]c1-c1cc(C)c2c(c1)cc(CN1CCCCC1)n2C [Cpd 100, 6-(1,7-dimethyl-2-(piperidin-1-ylmethyl)-1H-indol-5-yl)-5-ethyl-2-oxo-1,2-dihydropyridine-3-carboxylic acid]	< 1 µg/mL	12.5 to 150 µg/mL (≈ 30.7 to 368 µM)	3.5 to 12.5 µg/mL (≈ 8.59 to 30.7 µM)	12.5 to 150 µg/mL (≈ 30.7 to 368 µM)
CCc1c(-c2ccc3c(c2)cc(CNCc2ccc(F)cc2)n3C)[nH]c(=O)c(C(=O)O)c1O [Cpd 292, 5-ethyl-6-(2-((4-fluorobenzylamino)methyl)-1-methyl-1H-indol-5-yl)-4-hydroxy-2-oxo-1,2-dihydropyridine-3-carboxylic acid]	< 1 µg/mL	3.5 to 12.5 µg/mL (≈ 7.79 to 27.8 µM)	1 to 3.5 µg/mL (≈ 2.22 to 7.79 µM)	12.5 to 150 µg/mL (≈ 27.8 to 334 µM)
CCc1c(-c2ccc3c(c2)cc(CNC(C)c2ccncc2)n3C)[nH]c(=O)c(C(=O)O)c1O.Cl (stereo not drawn) [Cpd 226, 5-ethyl-4-hydroxy-6-(1-methyl-2-((1-(pyridin-4-yl)ethylamino)methyl)-1H-indol-5-yl)-2-oxo-1,2-dihydropyridine-3-carboxylic acid hydrochloride]	< 1 µg/mL	1 to 3.5 µg/mL	1 to 3.5 µg/mL	12.5 to 150 µg/mL
CN(C)Cc1cc2cc(-c3[nH]c(=O)c(C(=O)O)c(O)c3-c3ccc(F)cc3)ccc2n1C [Cpd 310, 6-(2-((dimethylamino)methyl)-1-methyl-1H-indol-5-yl)-5-(4-fluorophenyl)-4-hydroxy-2-oxo-1,2-dihydropyridine-3-carboxylic acid]	< 1 µg/mL	12.5 to 150 µg/mL (≈ 28.7 to 344 µM)	3.5 to 12.5 µg/mL (≈ 8.04 to 28.7 µM)	12.5 to 150 µg/mL (≈ 28.7 to 344 µM)
CCc1cc(C(=O)O)c(=O)[nH]c1-c1cc2cc(CN3CCOCC3)n(C)c2cc1OC [Cpd 108, 5-ethyl-6-(6-methoxy-1-methyl-2-(morpholinomethyl)-1H-indol-5-yl)-2-oxo-1,2-dihydropyridine-3-carboxylic acid]	12.5 to 150 µg/mL (≈ 29.4 to 353 µM)	12.5 to 150 µg/mL (≈ 29.4 to 353 µM)	12.5 to 150 µg/mL (≈ 29.4 to 353 µM)	12.5 to 150 µg/mL (≈ 29.4 to 353 µM)
CCc1cc(C(=O)O)c(=O)[nH]c1-c1cc2cc(CN(CC)CC)n(C)c2cc1C [Cpd 95, 6-(2-((diethylamino)methyl)-1,6-dimethyl-1H-indol-5-yl)-5-ethyl-2-oxo-1,2-dihydropyridine-3-carboxylic acid]	12.5 to 150 µg/mL (≈ 31.6 to 379 µM)	12.5 to 150 µg/mL (≈ 31.6 to 379 µM)	12.5 to 150 µg/mL (≈ 31.6 to 379 µM)	12.5 to 150 µg/mL (≈ 31.6 to 379 µM)
CCc1cc(C(=O)O)c(=O)[nH]c1-c1ccc2c(c1)cc(CN1C[C@@H](C)O[C@@H](C)C1)n2C [Cpd 138, 6-(2-((cis-2,6-dimethylmorpholino)methyl)-1-methyl-1H-indol-5-yl)-5-ethyl-2-oxo-1,2-dihydropyridine-3-carboxylic acid]	< 1 µg/mL	12.5 to 150 µg/mL (≈ 29.5 to 354 µM)	3.5 to 12.5 µg/mL (≈ 8.26 to 29.5 µM)	12.5 to 150 µg/mL (≈ 29.5 to 354 µM)
CCc1c(-c2ccc3c(c2)cc(CN2CCC(C(=O)N(C)C)C2)n3C)[nH]c(=O)c(C(=O)O)c1O (stereo not drawn) [Cpd 191, 6-(2-((3-(dimethylcarbamoyl)pyrrolidin-1-yl)methyl)-1-methyl-1H-indol-5-yl)-5-ethyl-4-hydroxy-2-oxo-1,2-dihydropyridine-3-carboxylic acid]	< 1 µg/mL	3.5 to 12.5 µg/mL (≈ 7.5 to 26.8 µM)	1 to 3.5 µg/mL (≈ 2.14 to 7.5 µM)	12.5 to 150 µg/mL (≈ 26.8 to 322 µM)
CCc1c(-c2ccc3c(c2)cc(CN2CCC(F)(F)C2)n3C)[nH]c(=O)c(C(=O)O)c1O [Cpd 176, 6-(2-((3,3-difluoropyrrolidin-1-yl)methyl)-1-methyl-1H-indol-5-yl)-5-ethyl-4-hydroxy-2-oxo-1,2-dihydropyridine-3-carboxylic acid]	< 1 µg/mL	1 to 3.5 µg/mL (≈ 2.32 to 8.11 µM)	12.5 to 150 µg/mL (≈ 29 to 348 µM)	12.5 to 150 µg/mL (≈ 29 to 348 µM)
CCc1c(-c2ccc3c(c2)cc(CN2C[C@@H](C)N(C)[C@@H](C)C2)n3C)[nH]c(=O)c(C(=O)O)c1O [Cpd 170, 5-ethyl-4-hydroxy-6-(1-methyl-2-(((3S,5R)-3,4,5-trimethylpiperazin-1-yl)methyl)-1H-indol-5-yl)-2-oxo-1,2-dihydropyridine-3-carboxylic acid]	< 1 µg/mL	12.5 to 150 µg/mL (≈ 27.6 to 331 µM)	3.5 to 12.5 µg/mL (≈ 7.73 to 27.6 µM)	12.5 to 150 µg/mL (≈ 27.6 to 331 µM)
CCc1c(-c2ccc3c(c2)cc(C(C)(C)N2CCCC2)n3C)[nH]c(=O)c(C(=O)O)c1O [Cpd 307, 5-ethyl-4-hydroxy-6-(1-methyl-2-(2-(pyrrolidin-1-yl)propan-2-yl)-1H-indol-5-yl)-2-oxo-1,2-dihydropyridine-3-carboxylic acid]	< 1 µg/mL	1 to 3.5 µg/mL (≈ 2.36 to 8.26 µM)	12.5 to 150 µg/mL (≈ 29.5 to 354 µM)	12.5 to 150 µg/mL (≈ 29.5 to 354 µM)
CCc1cc(C(=O)O)c(=O)[nH]c1-c1cc(F)c2c(c1)cc(CN(C)C)n2C [Cpd 106, 6-(2-((dimethylamino)methyl)-7-fluoro-1-methyl-1H-indol-5-yl)-5-ethyl-2-oxo-1,2-dihydropyridine-3-carboxylic acid]	< 1 µg/mL	12.5 to 150 µg/mL (≈ 33.7 to 404 µM)	1 to 3.5 µg/mL (≈ 2.69 to 9.42 µM)	12.5 to 150 µg/mL (≈ 33.7 to 404 µM)
CCc1c(-c2ccc3c(c2)cc(CN[C@H](C)C(F)(F)F)n3C)[nH]c(=O)c(C(=O)O)c1O [Cpd 272, (R)-5-ethyl-4-hydroxy-6-(1-methyl-2-((1,1,1-trifluoropropan-2-ylamino)methyl)-1H-indol-5-yl)-2-oxo-1,2-dihydropyridine-3-carboxylic acid]	< 1 µg/mL	1 to 3.5 µg/mL (≈ 2.29 to 8 µM)	12.5 to 150 µg/mL (≈ 28.6 to 343 µM)	12.5 to 150 µg/mL (≈ 28.6 to 343 µM)
CCc1c(-c2ccc3c(c2)cc(CN2C[C@H]4CC[C@@H](N(Cc5ccccc5)Cc5ccccc5)[C@H]4C2)n3C)[nH]c(=O)c(C(=O)O)c1O [Cpd 281, 6-(2-(((3aR,4R,6aS)-4-(dibenzylamino)hexahydrocyclopenta[c]pyrrol-2(1H)-yl)methyl)-1-methyl-1H-indol-5-yl)-5-ethyl-4-hydroxy-2-oxo-1,2-dihydropyridine-3-carboxylic acid]	12.5 to 150 µg/mL (≈ 19.8 to 238 µM)	12.5 to 150 µg/mL (≈ 19.8 to 238 µM)	12.5 to 150 µg/mL (≈ 19.8 to 238 µM)	12.5 to 150 µg/mL (≈ 19.8 to 238 µM)
CCc1cc(C(=O)O)c(=O)[nH]c1-c1ccc2c(c1)cc(C(C)N1CCCC1)n2C (stereo not drawn) [Cpd 157, 5-ethyl-6-(1-methyl-2-(1-(pyrrolidin-1-yl)ethyl)-1H-indol-5-yl)-2-oxo-1,2-dihydropyridine-3-carboxylic acid]	< 1 µg/mL	12.5 to 150 µg/mL (≈ 31.8 to 381 µM)	3.5 to 12.5 µg/mL (≈ 8.89 to 31.8 µM)	12.5 to 150 µg/mL (≈ 31.8 to 381 µM)
CCc1c(-c2ccc3c(c2)cc(CN2CC(N(C)Cc4ccccc4)C2)n3C)[nH]c(=O)c(C(=O)O)c1O [Cpd 206, 6-(2-((3-(benzyl(methyl)amino)azetidin-1-yl)methyl)-1-methyl-1H-indol-5-yl)-5-ethyl-4-hydroxy-2-oxo-1,2-dihydropyridine-3-carboxylic acid]	< 1 µg/mL	3.5 to 12.5 µg/mL (≈ 6.99 to 25 µM)	3.5 to 12.5 µg/mL (≈ 6.99 to 25 µM)	12.5 to 150 µg/mL (≈ 25 to 300 µM)
CCc1c(-c2ccc3c(c2)cc(CNC2CNC2)n3C)[nH]c(=O)c(C(=O)O)c1O.Cl.Cl [Cpd 244, 6-(2-((azetidin-3-ylamino)methyl)-1-methyl-1H-indol-5-yl)-5-ethyl-4-hydroxy-2-oxo-1,2-dihydropyridine-3-carboxylic acid dihydrochloride]	1 to 3.5 µg/mL	12.5 to 150 µg/mL	12.5 to 150 µg/mL	12.5 to 150 µg/mL
CCc1cc(C(=O)O)c(=O)[nH]c1-c1ccc2c(cc(CN3CCCC3)n2C)n1 [Cpd 84, 5-ethyl-6-(1-methyl-2-(pyrrolidin-1-ylmethyl)-1H-pyrrolo[3,2-b]pyridin-5-yl)-2-oxo-1,2-dihydropyridine-3-carboxylic acid]	1 to 3.5 µg/mL (≈ 2.63 to 9.2 µM)	12.5 to 150 µg/mL (≈ 32.9 to 394 µM)	3.5 to 12.5 µg/mL (≈ 9.2 to 32.9 µM)	12.5 to 150 µg/mL (≈ 32.9 to 394 µM)
CCc1cc(C(=O)O)c(=O)[nH]c1-c1ccc2c(c1)cc(C1CCNC1)n2C.Cl (stereo not drawn) [Cpd 156, 5-ethyl-6-(1-methyl-2-(pyrrolidin-3-yl)-1H-indol-5-yl)-2-oxo-1,2-dihydropyridine-3-carboxylic acid hydrochloride]	3.5 to 12.5 µg/mL	12.5 to 150 µg/mL	12.5 to 150 µg/mL	12.5 to 150 µg/mL
CCc1c(-c2ccc3c(c2)cc(CN2C[C@H]4CCC[C@@H](N(C)Cc5ccccc5)[C@H]4C2)n3C)[nH]c(=O)c(C(=O)O)c1O [Cpd 280, 6-(2-(((3aR,4R,7aS)-4-(benzyl(methyl)amino)-1H-isoindol-2(3H,3aH,4H,5H,6H,7H,7aH)-yl)methyl)-1-methyl-1H-indol-5-yl)-5-ethyl-4-hydroxy-2-oxo-1,2-dihydropyridine-3-carboxylic acid]	< 1 µg/mL	1 to 3.5 µg/mL (≈ 1.76 to 6.15 µM)	12.5 to 150 µg/mL (≈ 22 to 264 µM)	12.5 to 150 µg/mL (≈ 22 to 264 µM)
CCc1c(-c2ccc3c(c2)cc(C(C)(C)N(C)C)n3C)[nH]c(=O)c(C(=O)O)c1O [Cpd 308, 6-(2-(2-(dimethylamino)propan-2-yl)-1-methyl-1H-indol-5-yl)-5-ethyl-4-hydroxy-2-oxo-1,2-dihydropyridine-3-carboxylic acid]	< 1 µg/mL	1 to 3.5 µg/mL (≈ 2.52 to 8.81 µM)	12.5 to 150 µg/mL (≈ 31.4 to 377 µM)	12.5 to 150 µg/mL (≈ 31.4 to 377 µM)
